Test results taken from ChEMBL document CHEMBL3233010, “Design, synthesis and biological evaluation of novel 6-alkenylamides substituted of 4-anilinothieno[2,3-d]pyrimidines as irreversible epidermal growth factor receptor inhibitors” (Bioorg Med Chem, 2014).
Blank lines part the entries; values can stand above or below the compound they belong to.

Key:
NCI-H1975 = assay: Antiproliferative activity against gefitinib-resistant human NCI-H1975 cells assessed as growth inhibition after 72 hrs by SRB assay; format: functional, cell-based; settings: NCI-H1975, 72 h
[1] = target: Epidermal growth factor receptor (Homo sapiens, UniProt P00533, L858R/T790M); assay: Inhibition of EGFR T790M/L858R double mutant (unknown origin) expressed in baculovirus expression system using Poly(Glu:Tyr)4:1 substrate after 60 mins by ELISA
A-431 = assay: Antiproliferative activity against human A431 cells assessed as growth inhibition after 72 hrs by SRB assay; format: functional, cell-based; settings: A-431, 72 h
[2] = target: Epidermal growth factor receptor (Homo sapiens, UniProt P00533); assay: Inhibition of wild type EGFR domain (unknown origin) expressed in baculovirus expression system using Poly(Glu:Tyr)4:1 substrate after 60 mins by ELISA
Chain of Epidermal growth factor receptor (Homo sapiens, UniProt P00533) (P00533 whole entry, the tested form may be a part): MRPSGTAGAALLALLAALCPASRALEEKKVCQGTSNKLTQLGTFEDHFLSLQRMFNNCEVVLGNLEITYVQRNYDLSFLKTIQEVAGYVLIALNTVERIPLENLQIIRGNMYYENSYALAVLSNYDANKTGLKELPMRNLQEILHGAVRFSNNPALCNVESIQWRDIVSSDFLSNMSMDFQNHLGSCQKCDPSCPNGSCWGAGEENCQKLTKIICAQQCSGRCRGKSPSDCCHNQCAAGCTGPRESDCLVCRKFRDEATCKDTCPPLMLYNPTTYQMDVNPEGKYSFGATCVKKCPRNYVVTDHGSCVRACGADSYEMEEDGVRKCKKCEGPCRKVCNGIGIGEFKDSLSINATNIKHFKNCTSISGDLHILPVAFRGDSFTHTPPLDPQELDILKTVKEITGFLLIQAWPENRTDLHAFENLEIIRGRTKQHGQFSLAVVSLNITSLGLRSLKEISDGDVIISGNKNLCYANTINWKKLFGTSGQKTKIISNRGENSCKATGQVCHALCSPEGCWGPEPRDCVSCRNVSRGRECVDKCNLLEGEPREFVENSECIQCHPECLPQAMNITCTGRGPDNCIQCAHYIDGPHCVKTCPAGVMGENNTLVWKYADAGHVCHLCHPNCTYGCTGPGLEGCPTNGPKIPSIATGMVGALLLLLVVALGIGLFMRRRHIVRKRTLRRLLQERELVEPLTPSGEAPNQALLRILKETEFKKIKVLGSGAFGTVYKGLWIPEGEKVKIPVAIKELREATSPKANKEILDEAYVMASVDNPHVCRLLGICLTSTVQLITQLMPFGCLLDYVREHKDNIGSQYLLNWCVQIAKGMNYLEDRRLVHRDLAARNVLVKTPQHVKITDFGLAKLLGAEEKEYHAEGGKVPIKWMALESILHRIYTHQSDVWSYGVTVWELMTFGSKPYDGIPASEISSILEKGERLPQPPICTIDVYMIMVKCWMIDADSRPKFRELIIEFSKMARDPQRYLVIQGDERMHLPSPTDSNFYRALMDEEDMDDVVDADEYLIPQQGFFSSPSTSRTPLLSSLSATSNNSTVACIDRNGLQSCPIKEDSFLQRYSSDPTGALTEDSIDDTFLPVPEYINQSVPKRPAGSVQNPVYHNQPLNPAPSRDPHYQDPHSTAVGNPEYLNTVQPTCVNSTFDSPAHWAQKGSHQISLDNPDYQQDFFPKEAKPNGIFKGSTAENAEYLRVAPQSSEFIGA

Chain of Epidermal growth factor receptor (Homo sapiens, UniProt P00533, L858R/T790M) (P00533 25-1210 T790M/L858R limits assumed): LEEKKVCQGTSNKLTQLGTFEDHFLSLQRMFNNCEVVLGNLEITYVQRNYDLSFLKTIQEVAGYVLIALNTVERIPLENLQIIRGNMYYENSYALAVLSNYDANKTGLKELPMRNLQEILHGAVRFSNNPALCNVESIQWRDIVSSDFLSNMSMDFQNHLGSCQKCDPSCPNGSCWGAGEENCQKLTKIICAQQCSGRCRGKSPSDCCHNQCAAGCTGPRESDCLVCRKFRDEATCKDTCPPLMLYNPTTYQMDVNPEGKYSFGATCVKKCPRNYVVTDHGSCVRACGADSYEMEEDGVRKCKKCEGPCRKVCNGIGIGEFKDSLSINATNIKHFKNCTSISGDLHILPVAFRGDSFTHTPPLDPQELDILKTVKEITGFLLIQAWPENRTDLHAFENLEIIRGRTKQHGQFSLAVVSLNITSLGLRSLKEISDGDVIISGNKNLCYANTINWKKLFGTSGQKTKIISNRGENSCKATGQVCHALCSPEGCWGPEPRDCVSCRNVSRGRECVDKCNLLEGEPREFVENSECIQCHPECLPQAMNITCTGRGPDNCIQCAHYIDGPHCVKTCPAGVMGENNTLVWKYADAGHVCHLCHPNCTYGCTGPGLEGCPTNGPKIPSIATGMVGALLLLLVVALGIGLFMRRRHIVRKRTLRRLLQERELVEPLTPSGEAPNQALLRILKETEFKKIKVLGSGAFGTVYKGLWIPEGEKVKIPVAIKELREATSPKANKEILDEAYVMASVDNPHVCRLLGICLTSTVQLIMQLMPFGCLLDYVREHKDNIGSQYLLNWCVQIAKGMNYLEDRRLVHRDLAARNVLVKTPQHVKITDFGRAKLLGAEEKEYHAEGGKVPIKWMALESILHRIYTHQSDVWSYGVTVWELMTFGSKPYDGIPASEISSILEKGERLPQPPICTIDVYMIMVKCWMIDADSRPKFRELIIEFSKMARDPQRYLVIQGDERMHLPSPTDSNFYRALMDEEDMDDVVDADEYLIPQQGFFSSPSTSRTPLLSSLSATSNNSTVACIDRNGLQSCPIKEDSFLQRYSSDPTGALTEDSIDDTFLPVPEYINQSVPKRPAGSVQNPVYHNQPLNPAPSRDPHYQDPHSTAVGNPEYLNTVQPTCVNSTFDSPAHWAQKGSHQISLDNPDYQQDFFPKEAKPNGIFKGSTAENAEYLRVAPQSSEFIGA

Compound: CN(C)CCN(C)CC(=O)Nc1cc2c(Nc3ccc(F)c(Cl)c3)ncnc2s1
IC50 (NCI-H1975): 17.6 µM | IC50 [1]: > 10 µM | IC50 (A-431): 1.59 µM | IC50 [2]: 4.29 µM

Compound: O=C(/C=C/CNCc1ncccn1)Nc1cc2c(Nc3ccc(F)c(Cl)c3)ncnc2s1
IC50 (NCI-H1975): 53 µM | IC50 [1]: 0.055 µM | IC50 (A-431): 3.24 µM | IC50 [2]: 0.008 µM

Compound: O=C(/C=C/CNCC1COC1)Nc1cc2c(Nc3ccc(F)c(Cl)c3)ncnc2s1
IC50 (NCI-H1975): 62.2 µM | IC50 [1]: 0.022 µM | IC50 (A-431): 3.93 µM | IC50 [2]: 0.01 µM

Compound: O=C(/C=C/CN1CCS(=O)(=O)CC1)Nc1cc2c(Nc3ccc(F)c(Cl)c3)ncnc2s1
IC50 (NCI-H1975): 75.4 µM | IC50 [1]: 0.007 µM | IC50 (A-431): 8.72 µM | IC50 [2]: 0.029 µM

Compound: O=C(CCl)Nc1cc2c(Nc3ccc(F)c(Cl)c3)ncnc2s1
IC50 (NCI-H1975): 3.01 µM | IC50 [1]: 0.71 µM | IC50 (A-431): 3.58 µM | IC50 [2]: 0.04 µM

Compound: CCN(CC)CCN(C)C/C=C/C(=O)Nc1cc2c(Nc3ccc(F)c(Cl)c3)ncnc2s1
IC50 (NCI-H1975): > 100 µM | IC50 [1]: 0.354 µM | IC50 (A-431): 4.22 µM | IC50 [2]: 0.139 µM

Compound: O=C(CN1CCC(CCO)CC1)Nc1cc2c(Nc3ccc(F)c(Cl)c3)ncnc2s1
IC50 (NCI-H1975): 83.4 µM | IC50 [1]: > 10 µM | IC50 (A-431): 9.48 µM | IC50 [2]: 0.542 µM

Compound: O=C(/C=C/CN1CCC2(CC1)OCCO2)Nc1cc2c(Nc3ccc(F)c(Cl)c3)ncnc2s1
IC50 (NCI-H1975): 6.55 µM | IC50 [1]: 0.02 µM | IC50 (A-431): 0.55 µM | IC50 [2]: 0.002 µM

Compound: O=C(/C=C/CN1CCC(F)(F)C1)Nc1cc2c(Nc3ccc(F)c(Cl)c3)ncnc2s1
IC50 (NCI-H1975): 15.8 µM | IC50 [1]: 1.76 µM | IC50 (A-431): 3.69 µM | IC50 [2]: 0.028 µM

Compound: O=C(Nc1cc2c(Nc3ccc(F)c(Cl)c3)ncnc2s1)C1CCCC1
IC50 (NCI-H1975): 39.3 µM | IC50 [1]: > 10 µM | IC50 (A-431): 14.9 µM | IC50 [2]: > 10 µM

Compound: O=C(/C=C/CNC1CCOCC1)Nc1cc2c(Nc3ccc(F)c(Cl)c3)ncnc2s1
IC50 (NCI-H1975): 7.05 µM | IC50 [1]: 0.032 µM | IC50 (A-431): 2.21 µM | IC50 [2]: 0.02 µM

Compound: COC(=O)CC(=O)Nc1cc2c(Nc3ccc(F)c(Cl)c3)ncnc2s1
IC50 (NCI-H1975): > 100 µM | IC50 [1]: > 10 µM | IC50 (A-431): 21.3 µM | IC50 [2]: 5 µM

Compound: O=C(/C=C/CN1CC2(CCOCC2)C1)Nc1cc2c(Nc3ccc(F)c(Cl)c3)ncnc2s1
IC50 (NCI-H1975): 39.2 µM | IC50 [1]: 2.25 µM | IC50 (A-431): 13.4 µM | IC50 [2]: 2.16 µM

Compound: CN(C)CCCNC/C=C/C(=O)Nc1cc2c(Nc3ccc(F)c(Cl)c3)ncnc2s1
IC50 (NCI-H1975): > 100 µM | IC50 [1]: 0.0007 µM | IC50 (A-431): 25.4 µM | IC50 [2]: 1.2 µM

Compound: CS(=O)(=O)CCNC/C=C/C(=O)Nc1cc2c(Nc3ccc(F)c(Cl)c3)ncnc2s1
IC50 (NCI-H1975): 44.9 µM | IC50 [1]: 0.068 µM | IC50 (A-431): 19.2 µM | IC50 [2]: 0.003 µM

IC50 (NCI-H1975): 90.2 µM | IC50 (A-431): 26.6 µM
Compound: C=CCOC(=O)Nc1cc2c(Nc3ccc(F)c(Cl)c3)ncnc2s1

Compound: CN(C)CCCC(=O)Nc1cc2c(Nc3ccc(F)c(Cl)c3)ncnc2s1
IC50 (NCI-H1975): 29.6 µM | IC50 [1]: 1.8 µM | IC50 (A-431): 3.48 µM | IC50 [2]: 0.799 µM

Compound: O=C(/C=C/CN1CC2(COC2)C1)Nc1cc2c(Nc3ccc(F)c(Cl)c3)ncnc2s1
IC50 (NCI-H1975): 5.54 µM | IC50 [1]: 0.043 µM | IC50 (A-431): 0.86 µM | IC50 [2]: 0.007 µM

Compound: CN1CCN(CC(=O)Nc2cc3c(Nc4ccc(F)c(Cl)c4)ncnc3s2)CC1
IC50 (NCI-H1975): 21.5 µM | IC50 [1]: > 10 µM | IC50 (A-431): 1.7 µM | IC50 [2]: 3.4 µM

Compound: CN(C)CCCN(C)C/C=C/C(=O)Nc1cc2c(Nc3ccc(F)c(Cl)c3)ncnc2s1
IC50 (NCI-H1975): > 100 µM | IC50 [1]: 1.04 µM | IC50 (A-431): 3.41 µM | IC50 [2]: 0.093 µM

Compound: CCN1CCN(C/C=C/C(=O)Nc2cc3c(Nc4ccc(F)c(Cl)c4)ncnc3s2)CC1
IC50 (NCI-H1975): 20.6 µM | IC50 [1]: 0.004 µM | IC50 (A-431): 4.37 µM | IC50 [2]: 0.035 µM

Compound: CSC1CCN(C/C=C/C(=O)Nc2cc3c(Nc4ccc(F)c(Cl)c4)ncnc3s2)CC1
IC50 (NCI-H1975): 5.22 µM | IC50 [1]: 0.026 µM | IC50 (A-431): 1.13 µM | IC50 [2]: 0.018 µM

Compound: O=C(/C=C/CN1CC(O)C1)Nc1cc2c(Nc3ccc(F)c(Cl)c3)ncnc2s1
IC50 (NCI-H1975): 6.83 µM | IC50 [1]: 0.305 µM | IC50 (A-431): 1.65 µM | IC50 [2]: 0.038 µM

Compound: CCN(CC)C/C=C/C(=O)Nc1cc2c(Nc3ccc(F)c(Cl)c3)ncnc2s1
IC50 (NCI-H1975): 11.5 µM | IC50 [1]: 0.035 µM | IC50 (A-431): 0.64 µM | IC50 [2]: 0.008 µM

Compound: C/C=C(\C)C(=O)Nc1cc2c(Nc3ccc(F)c(Cl)c3)ncnc2s1
IC50 (NCI-H1975): > 100 µM | IC50 [1]: > 10 µM | IC50 (A-431): 24.2 µM | IC50 [2]: 6.41 µM

Compound: CN(C)C/C=C/C(=O)Nc1cc2c(Nc3ccc(F)c(Cl)c3)ncnc2s1
IC50 (NCI-H1975): 10.1 µM | IC50 [1]: 0.324 µM | IC50 (A-431): 0.25 µM | IC50 [2]: 0.024 µM

Compound: CC(C)N1CCN(C/C=C/C(=O)Nc2cc3c(Nc4ccc(F)c(Cl)c4)ncnc3s2)CC1
IC50 (NCI-H1975): 20.7 µM | IC50 [1]: 0.002 µM | IC50 (A-431): 4.78 µM | IC50 [2]: 0.034 µM

Compound: CCCCC(=O)Nc1cc2c(Nc3ccc(F)c(Cl)c3)ncnc2s1
IC50 (NCI-H1975): > 100 µM | IC50 [1]: > 10 µM | IC50 (A-431): 14.2 µM | IC50 [2]: > 10 µM

Compound: CCC(CC)C(=O)Nc1cc2c(Nc3ccc(F)c(Cl)c3)ncnc2s1
IC50 (NCI-H1975): > 100 µM | IC50 [1]: > 10 µM | IC50 (A-431): 22.8 µM | IC50 [2]: > 10 µM

Compound: CN(C)CCCN(C)CC(=O)Nc1cc2c(Nc3ccc(F)c(Cl)c3)ncnc2s1
IC50 (NCI-H1975): 19.1 µM | IC50 [1]: 1.7 µM | IC50 (A-431): 2.38 µM | IC50 [2]: 5.22 µM

Compound: COC(=O)CCCC(=O)Nc1cc2c(Nc3ccc(F)c(Cl)c3)ncnc2s1
IC50 (NCI-H1975): > 100 µM | IC50 [1]: > 10 µM | IC50 (A-431): 27.8 µM | IC50 [2]: > 10 µM

Compound: O=C(CN1CCN(CCO)CC1)Nc1cc2c(Nc3ccc(F)c(Cl)c3)ncnc2s1
IC50 (NCI-H1975): > 100 µM | IC50 [1]: > 10 µM | IC50 (A-431): 10.2 µM | IC50 [2]: 0.77 µM

Compound: CN1CCN(C/C=C/C(=O)Nc2cc3c(Nc4ccc(F)c(Cl)c4)ncnc3s2)CC1
IC50 (NCI-H1975): 34.8 µM | IC50 [1]: 0.003 µM | IC50 (A-431): 4.47 µM | IC50 [2]: 0.124 µM

IC50 (NCI-H1975): 10.8 µM | IC50 (A-431): 2.4 µM
Compound: O=C(/C=C/CN1CCC(F)CC1)Nc1cc2c(Nc3ccc(F)c(Cl)c3)ncnc2s1

Compound: COCCNC/C=C/C(=O)Nc1cc2c(Nc3ccc(F)c(Cl)c3)ncnc2s1
IC50 (NCI-H1975): 41.7 µM | IC50 [1]: 0.005 µM | IC50 (A-431): 4.85 µM | IC50 [2]: 1.04 µM

Compound: COC(CN(C)C/C=C/C(=O)Nc1cc2c(Nc3ccc(F)c(Cl)c3)ncnc2s1)OC
IC50 (NCI-H1975): 4.89 µM | IC50 [1]: 0.061 µM | IC50 (A-431): 0.43 µM | IC50 [2]: 0.002 µM
